Source: US20060110456A1, “Method for biocidal and/or biostatic treatment and compositions therefor” (NATIONAL UNIVERSITY OF SINGAPORE, priority 2004, published 2006)
“Also recorded” adds a separate entry of the source. Structures can show the parent of a compound that is named as a salt.

How the values were obtained:
[1] = test system: barnacle cyprids; assay: Cyprid settlement on plastic and glass substrata (IMD, ZPX); type: in vivo, Balanus amphitrite
Method: Assays were then carried out on plastic and glass substrata. […] The wells were then rinsed with clean water, and cyprids added in clean seawater.
A follow up experiment was carried out to examine the effect of ZPX on barnacle settlement when the experiment is carried out on different substrata. ZPX test solutions were prepared as described above from the tablet. The following test conditions were applied: • (1) Assay was carried out with ZPX test solutions in the 24 well tissue culture plates (as before); • (2) ZPX test solution at 25 ug ml^−1 were applied to the 24 well tissue culture plates and left in the well for 10 minutes. The solution is then discarded and the well was rinsed three times, each time with 2 ml of seawater. Clean seawater was added into each well. • (3) The assay with ZPX test solutions was carried out in glass scintillation bottles.
Cyprids were obtained and settlement experiments were carried out as described earlier. After 24 hours, the number of cyprids which had settled/attached was counted.

[2] = test system: bacterial biofilms (strains 9, 14, 20, 27 and 28); assay: Effect of ZPX and ZFN on adhesion and removal of biofilms; type: cell-based, marine bacteria isolated from Singapore fouling communities; conditions: NTC; for Effect on established bacterial biofilms: 25 ug ml^−1; for Biofilm present after treatment (added with bacteria or after biofilm established): 50 ug ml^−1
Method: The bacteria were grown, washed and their concentrations were adjusted as described above. The bacterial suspension (75 μl) of strains 9, 14, 20, 27 and 28 in SSW and 50 μl of SDI water were placed into 96 well polystyrene microplates (Falcon 351172). Blank wells were filled with 75 μl of SSW and 50 μl of SDI. Three wells were used for blanks, each control and treatment.
The cells were allowed to attach to the wells for 2 h. Afterwards, unattached bacteria and liquid in the wells were removed by aspiration and wells were washed with 200 μl of SSW twice using a microplate washer as described above. After washing, 75 μl of SSW were added and 50 μl of SDI to the control (bacterial suspension and SDI as above) and blank (75 μl of SSW and 50 μl of SDI) wells.
After 2 h, the wells were washed with SSW, washed twice with SDI and stained with crystal violet as described above. After 10 min, the stain was removed, wells were washed twice with SDI, and crystal violet was released from the attached bacteria by adding 200 μl of sodium desoxycholate. After 10 min, absorbance (A590) of each well was read using a plate reader (Tecan Sunrise, Switzerland). Comparisons were made between wells where attached bacteria were exposed to SDI and wells where they were exposed to the pharmaceuticals.

[3] = test system: marine bacteria; assay: Growth assay (absorbance, 96-well plates); type: cell-based, marine bacteria isolated from Singapore fouling communities; conditions: for Number of strains with strongly inhibited growth / Inhibition of bacterial growth: 25 μg ml^−1; for Number of strains with strongly inhibited growth: 25 strains of Table 5
Method: The dried powder was re-suspended in sterile deionized water and made up to 2 mg ml^−1.
The same bacterial strains were used and cultured the same way as in disc inhibition assay. Cells were harvested by centrifugation at 300 rpm for 10 min. The supernatant was discarded and the pellet re-suspended using sterile seawater collected from St. John's island, Singapore. The concentration of bacterial cells was adjusted to an absorbance of approximately 0.6 using a spectrophotometer (Beckman DU530) at wavelength 600 nm.
The growth with response to the pharmaceuticals was assumed to be proportional to the absorbance of the bacteria. […] To each well 25 μl of each drug solution (concentration adjusted to 100 μg ml^−1) were pipetted into three wells followed by 10 μl of broth and 65 μl of sterile seawater. For wells that were to contain bacteria, 60 μl of sterile seawater was used instead. All wells used for growth studies were prepared in triplicate and inoculated with 5 μl of the bacterial suspension. Blanks consisting of the respective volumes of pharmaceutical with Marine Broth and distilled water, if needed, were prepared in triplicate and inoculated with 5 μl of sterile seawater.
The absorbance (A600) of each well was read in a plate reader (Sunrise Tecan Model F039300) immediately (time=0 hours) and after 1, 2, 3, 4, 20, 23 and 28 hours. Plates were incubated overnight inside a moistened airtight container.
Any changes in absorbance were plotted and compared with control. The mean absorbance (mean bac) from the bacteria was obtained by deducting the absorbance values of blank wells (containing seawater and broth only) from that for the control wells (containing bacteria in seawater and broth only). The absorbance arising from the drugs was obtained from the 0 hr reading for wells containing drugs and bacteria, minus the wells with drugs alone (mean “drug”). The growth assays were repeated three times.

## CN(C)C(=O)C(CCN1CCC(O)(c2ccc(Cl)cc2)CC1)(c1ccccc1)c1ccccc1 [IMD, Loperamide hydrochloride]
[1]; tablet vs pure compound, DMSO vs DI stock, glass vs plastic, treated and rinsed wells, hydrochloride
  Effect of IMD on settlement of cyprids: drug form, solvent, substratum: no difference in activity between the solutions prepared from tablet and the pure compound; also recorded: no difference between the DMSO and DI prepared stock solutions; also recorded: no difference between glass and plastic; also recorded: no significant IMD residue present on the surfaces

## Cc1cc2c(s1)Nc1ccccc1N=C2N1CCN(C)CC1 [ZPX, olanzapine]
[2]
  Effect on established bacterial biofilms: no significant effect
  Biofilm present after treatment (added with bacteria or after biofilm established): Except for strain 28, little or no biofilm was present after treatment
[1]; 24 well tissue culture plates, rinsed ZPX-treated wells (25 ug ml^−1, 10 minutes), glass bottles, 24 hours
  Effect of ZPX on cyprid settlement on different substrata: no significant difference in settlement between plastic and glass; also recorded: After rinsing, the effect of ZPX in plastic was removed; also recorded: prevents the settlement of barnacle cyprids

## CN1CCN(CCCN2c3ccccc3Sc3ccc(C(F)(F)F)cc32)CC1 [TFZ, Trifluoperazine hydrochloride]
[3]
  Number of strains with strongly inhibited growth: 14
[3]; strain 1 (Rhodovulum)
  Inhibition of bacterial growth: 0
[3]; strain 2 (Erythrobacter)
  Inhibition of bacterial growth: 0
[3]; strain 3 (Erythrobacter)
  Inhibition of bacterial growth: +++ (+++ denotes little or no growth, p < 0.001)
[3]; strain 4 (Bacillus)
  Inhibition of bacterial growth: +++ (+++ denotes little or no growth, p < 0.001)
[3]; strain 6 (Vibrio)
  Inhibition of bacterial growth: + (+ denotes growth present but inhibited, p < 0.01)
[3]; strain 7 (Vibrio)
  Inhibition of bacterial growth: + (+ denotes growth present but inhibited, p < 0.01)
[3]; strain 8 (Bacillus)
  Inhibition of bacterial growth: + (+ denotes growth present but inhibited, p < 0.01)
[3]; strain 9 (Bacillus)
  Inhibition of bacterial growth: +++ (+++ denotes little or no growth, p < 0.001)
[3]; strain 10 (Halobacillus)
  Inhibition of bacterial growth: +++ (+++ denotes little or no growth, p < 0.001)
[3]; strain 11 (Pseudomonas)
  Inhibition of bacterial growth: + (+ denotes growth present but inhibited, p < 0.01)
[3]; strain 12 (Gordonia)
  Inhibition of bacterial growth: +++ (+++ denotes little or no growth, p < 0.001)
[3]; strain 13 (Bacillus)
  Inhibition of bacterial growth: +++ (+++ denotes little or no growth, p < 0.001)
[3]; strain 14 (Vibrio)
  Inhibition of bacterial growth: 0
[3]; strain 16 (Pseudoalteromonas)
  Inhibition of bacterial growth: 0
[3]; strain 17 (Gordonia)
  Inhibition of bacterial growth: +++ (+++ denotes little or no growth, p < 0.001)
[3]; strain 18 (Microbacterium)
  Inhibition of bacterial growth: +++ (+++ denotes little or no growth, p < 0.001)
[3]; strain 19 (Erythrobacter)
  Inhibition of bacterial growth: +++ (+++ denotes little or no growth, p < 0.001)
[3]; strain 20
  Inhibition of bacterial growth: + (+ denotes growth present but inhibited, p < 0.01)
[3]; strain 21
  Inhibition of bacterial growth: 0
[3]; strain 24
  Inhibition of bacterial growth: + (+ denotes growth present but inhibited, p < 0.01)
[3]; strain 26
  Inhibition of bacterial growth: 0
[3]; strain 27
  Inhibition of bacterial growth: +++ (+++ denotes little or no growth, p < 0.001)
[3]; strain 28
  Inhibition of bacterial growth: +++ (+++ denotes little or no growth, p < 0.001)
[3]; strain 29
  Inhibition of bacterial growth: +++ (+++ denotes little or no growth, p < 0.001)
[3]; strain 30
  Inhibition of bacterial growth: +++ (+++ denotes little or no growth, p < 0.001)

## Cc1nccn1CC1CCc2c(c3ccccc3n2C)C1=O (stereo not shown) [ZFN, ondansetron hydrochloride]
[2]
  Effect on established bacterial biofilms: no significant effect
  Biofilm present after treatment (added with bacteria or after biofilm established): Except for strain 28, little or no biofilm was present after treatment

## CNCCC(Oc1ccc(C(F)(F)F)cc1)c1ccccc1 (stereo not shown) [PZC, fluoxetine hydrochloride]
[3]
  Number of strains with strongly inhibited growth: 3
[3]; strain 1 (Rhodovulum)
  Inhibition of bacterial growth: 0
[3]; strain 2 (Erythrobacter)
  Inhibition of bacterial growth: + (+ denotes growth present but inhibited, p < 0.01)
[3]; strain 3 (Erythrobacter)
  Inhibition of bacterial growth: + (+ denotes growth present but inhibited, p < 0.01)
[3]; strain 4 (Bacillus)
  Inhibition of bacterial growth: 0
[3]; strain 6 (Vibrio)
  Inhibition of bacterial growth: 0
[3]; strain 7 (Vibrio)
  Inhibition of bacterial growth: + (+ denotes growth present but inhibited, p < 0.01)
[3]; strain 8 (Bacillus)
  Inhibition of bacterial growth: + (+ denotes growth present but inhibited, p < 0.01)
[3]; strain 9 (Bacillus)
  Inhibition of bacterial growth: + (+ denotes growth present but inhibited, p < 0.01)
[3]; strain 10 (Halobacillus)
  Inhibition of bacterial growth: +++ (+++ denotes little or no growth, p < 0.001)
[3]; strain 11 (Pseudomonas)
  Inhibition of bacterial growth: + (+ denotes growth present but inhibited, p < 0.01)
[3]; strain 12 (Gordonia)
  Inhibition of bacterial growth: + (+ denotes growth present but inhibited, p < 0.01)
[3]; strain 13 (Bacillus)
  Inhibition of bacterial growth: + (+ denotes growth present but inhibited, p < 0.01)
[3]; strain 14 (Vibrio)
  Inhibition of bacterial growth: 0
[3]; strain 16 (Pseudoalteromonas)
  Inhibition of bacterial growth: 0
[3]; strain 17 (Gordonia)
  Inhibition of bacterial growth: +++ (+++ denotes little or no growth, p < 0.001)
[3]; strain 18 (Microbacterium)
  Inhibition of bacterial growth: + (+ denotes growth present but inhibited, p < 0.01)
[3]; strain 19 (Erythrobacter)
  Inhibition of bacterial growth: + (+ denotes growth present but inhibited, p < 0.01)
[3]; strain 20
  Inhibition of bacterial growth: + (+ denotes growth present but inhibited, p < 0.01)
[3]; strain 21
  Inhibition of bacterial growth: 0
[3]; strain 24
  Inhibition of bacterial growth: 0
[3]; strain 26
  Inhibition of bacterial growth: 0
[3]; strain 27
  Inhibition of bacterial growth: + (+ denotes growth present but inhibited, p < 0.01)
[3]; strain 28
  Inhibition of bacterial growth: 0
[3]; strain 29
  Inhibition of bacterial growth: + (+ denotes growth present but inhibited, p < 0.01)
[3]; strain 30
  Inhibition of bacterial growth: +++ (+++ denotes little or no growth, p < 0.001)

## CN1CCN(CCCN2c3ccccc3Sc3ccc(Cl)cc32)CC1 [PCZ, prochlorperazine maleate]
[3]
  Number of strains with strongly inhibited growth: 11
[3]; 25 μg ml−1, strain named in the value
  Growth response (absorbance over time): slight growth response of bacteria strain 11
[3]; strain 1 (Rhodovulum)
  Inhibition of bacterial growth: 0
[3]; strain 2 (Erythrobacter)
  Inhibition of bacterial growth: 0
[3]; strain 3 (Erythrobacter)
  Inhibition of bacterial growth: +++ (+++ denotes little or no growth, p < 0.001)
[3]; strain 4 (Bacillus)
  Inhibition of bacterial growth: +++ (+++ denotes little or no growth, p < 0.001)
[3]; strain 6 (Vibrio)
  Inhibition of bacterial growth: 0
[3]; strain 7 (Vibrio)
  Inhibition of bacterial growth: + (+ denotes growth present but inhibited, p < 0.01)
[3]; strain 8 (Bacillus)
  Inhibition of bacterial growth: +++ (+++ denotes little or no growth, p < 0.001)
[3]; strain 9 (Bacillus)
  Inhibition of bacterial growth: +++ (+++ denotes little or no growth, p < 0.001)
[3]; strain 10 (Halobacillus)
  Inhibition of bacterial growth: +++ (+++ denotes little or no growth, p < 0.001)
[3]; strain 11 (Pseudomonas)
  Inhibition of bacterial growth: + (+ denotes growth present but inhibited, p < 0.01)
[3]; strain 12 (Gordonia)
  Inhibition of bacterial growth: +++ (+++ denotes little or no growth, p < 0.001)
[3]; strain 13 (Bacillus)
  Inhibition of bacterial growth: +++ (+++ denotes little or no growth, p < 0.001)
[3]; strain 14 (Vibrio)
  Inhibition of bacterial growth: 0
[3]; strain 16 (Pseudoalteromonas)
  Inhibition of bacterial growth: 0
[3]; strain 17 (Gordonia)
  Inhibition of bacterial growth: +++ (+++ denotes little or no growth, p < 0.001)
[3]; strain 18 (Microbacterium)
  Inhibition of bacterial growth: +++ (+++ denotes little or no growth, p < 0.001)
[3]; strain 19 (Erythrobacter)
  Inhibition of bacterial growth: +++ (+++ denotes little or no growth, p < 0.001)
[3]; strain 20
  Inhibition of bacterial growth: + (+ denotes growth present but inhibited, p < 0.01)
[3]; strain 21
  Inhibition of bacterial growth: 0
[3]; strain 24
  Inhibition of bacterial growth: 0
[3]; strain 26
  Inhibition of bacterial growth: 0
[3]; strain 27
  Inhibition of bacterial growth: + (+ denotes growth present but inhibited, p < 0.01)
[3]; strain 28
  Inhibition of bacterial growth: 0
[3]; strain 29
  Inhibition of bacterial growth: + (+ denotes growth present but inhibited, p < 0.01)
[3]; strain 30
  Inhibition of bacterial growth: +++ (+++ denotes little or no growth, p < 0.001)
